Test results taken from patent US20150010928A1, “MEANS AND METHODS FOR ASSESSING AN ENDOCRINE DISEASE OR DISORDER” (priority 2012, published 2015).
Marks after values point to notes of the source that are not given here.

Tested on: male rats
Assay: Plasma metabolite profiling (GC-MS, LC-MS, SPE-LC-MS) in male rats dosed once daily over 28 days (OECD 407)
Type: in vivo, rat
Conditions: high dose; for 3-Methoxytyrosine / 3-O-Methylsphingosine (d18:1) / 5-O-Methylsphingosine (d18:1) / Androstenedione / Arachidonic acid (C20:cis[5,8,11,14]4) / Behenic acid (C22:0) / Cholesterol / Cysteine / Dodecanol / Eicosanoic acid (C20:0) / Galactose, lipid fraction / Glycerol phosphate, lipid fraction / Histidine / Indole-3-lactic acid / Lignoceric acid (C24:0) / Nervonic acid (C24:cis[15]1) / Noradrenaline (Norepinephrine) / Phosphate, lipid fraction / Phosphatidylcholine (C18:0, C18:2) / Phosphatidylcholine (C18:0, C20:3) / Phosphatidylcholine (C18:0, C22:6) / Phosphatidylcholine (C18:0,C18:1) / Phytosphingosine / Stearic acid (C18:0) / Testosterone / Threonine / Tricosanoic acid (C23:0) / Tryptophan / alpha-Tocopherol / beta-Sitosterol / dihomo-gamma-Linolenic acid (C20:cis[8,11,14]3) / erythro-Sphingosine (d18:1) / myo-Inositol-2-phosphate, lipid fraction / threo-Sphingosine (d18:1): Table 11a; for 3-Hydroxybutyrate / 4-Hydroxy-3-methoxyphenylglycol (HMPG) / 18-Hydroxy-11-deoxycorticosterone / 21-Hydroxyprogesterone (11-Deoxycorticosterone) / Citrate / Coenzyme Q9 / Coenzyme Q10 / Corticosterone / Metanephrine / Palmitoleic acid (C16:cis[9]1) / Phosphatidylcholine (C16:0, C16:0) / Progesterone / trans-4-Hydroxyproline: Table 11b; for 3-Hydroxybutyrate, ratio versus control / 18-Hydroxy-11-deoxycorticosterone, ratio versus control / Ceramide (d18:1, C24:1), ratio versus control / Coenzyme Q10, ratio versus control / Corticosterone, ratio versus control / Metanephrine, ratio versus control / Tricosanoic acid (C23:0), ratio versus control / alpha-Tocopherol, ratio versus control / trans-4-Hydroxyproline, ratio versus control: male rats, plasma
Procedure, shortened: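 Metabolites were measured by GC-MS (derivatised) and reversed-phase LC-MS, with steroids by online SPE-LC-MS, in plasma drawn from fasted rats on days 7, 14 and 28 of once-daily dosing (5/sex/group). Values are ratios versus sex-matched untreated controls, normalized to pool samples, with Welch-test p-values.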

SMILES: CC(=O)O[C@]1(C(C)=O)CC[C@H]2[C@@H]3C=C(Cl)C4=CC(=O)[C@@H]5C[C@@H]5[C@]4(C)[C@H]3CC[C@@]21C [Cyproteron Acetate]
- 3-Methoxytyrosine (m7): 1.37 *
- 3-O-Methylsphingosine (d18:1) (m7): 1.73 *
- 5-O-Methylsphingosine (d18:1) (m7): 1.83 *
- Androstenedione (m7): 4.65^
- Arachidonic acid (C20:cis[5,8,11,14]4) (m7): 1.35 *
- Behenic acid (C22:0) (m7): 1.38 *
- Cholesterol (m7): 1.33 *
- Cysteine (m7): 1.3 *
- Dodecanol (m7): 1.26 *
- Eicosanoic acid (C20:0) (m7): 1.06^
- Galactose, lipid fraction (m7): 1.37 *
- Glycerol phosphate, lipid fraction (m7): 1.57 *
- Histidine (m7): 1.39 *
- Indole-3-lactic acid (m7): 1.13 *
- Lignoceric acid (C24:0) (m7): 1.46 *
- Nervonic acid (C24:cis[15]1) (m7): 1.69 *
- Noradrenaline (Norepinephrine) (m7): 1.61 *
- Phosphate, lipid fraction (m7): 1.32 *
- Phosphatidylcholine (C18:0, C18:2) (m7): 1.04 *
- Phosphatidylcholine (C18:0, C20:3) (m7): 1.03^
- Phosphatidylcholine (C18:0, C22:6) (m7): 1.31 *
- Phosphatidylcholine (C18:0,C18:1) (m7): 1.09 *
- Phytosphingosine (m7): 1.05^
- Stearic acid (C18:0) (m7): 1.44 *
- Testosterone (m7): 3.32^
- Threonine (m7): 1.78 *
- Tricosanoic acid (C23:0) (m7): 1.48 *
- Tryptophan (m7): 1.1 *
- alpha-Tocopherol (m7): 1.22 *
- beta-Sitosterol (m7): 2.11 *
- dihomo-gamma-Linolenic acid (C20:cis[8,11,14]3) (m7): 1.66 *
- erythro-Sphingosine (d18:1) (m7): 1.68 *
- myo-Inositol-2-phosphate, lipid fraction (m7): 1.65 *
- threo-Sphingosine (d18:1) (m7): 1.39 *
- 3-Hydroxybutyrate (m7): 0.58 *
- 4-Hydroxy-3-methoxyphenylglycol (HMPG) (m7): 1.11^
- 18-Hydroxy-11-deoxycorticosterone (m7): 0.03 *
- 21-Hydroxyprogesterone (11-Deoxycorticosterone) (m7): 0.3 *
- Citrate (m7): 1.24^
- Coenzyme Q9 (m7): 0.58 *
- Coenzyme Q10 (m7): 0.49 *
- Corticosterone (m7): 0.04 *
- Metanephrine (m7): 0.91^
- Palmitoleic acid (C16:cis[9]1) (m7): 0.88 *
- Phosphatidylcholine (C16:0, C16:0) (m7): 0.78 *
- Progesterone (m7): 0.4 *
- trans-4-Hydroxyproline (m7): 0.53 *
- 3-Methoxytyrosine (m14): 1.81 *
- 3-O-Methylsphingosine (d18:1) (m14): 2.19 *
- 5-O-Methylsphingosine (d18:1) (m14): 2.18 *
- Androstenedione (m14): 3.8 *
- Arachidonic acid (C20:cis[5,8,11,14]4) (m14): 2.03 *
- Behenic acid (C22:0) (m14): 1.52 *
- Cholesterol (m14): 1.63 *
- Cysteine (m14): 1.28 *
- Dodecanol (m14): 1.71 *
- Eicosanoic acid (C20:0) (m14): 1.15
- Galactose, lipid fraction (m14): 2.57 *
- Glycerol phosphate, lipid fraction (m14): 2.05 *
- Histidine (m14): 1.17
- Indole-3-lactic acid (m14): 1.15 *
- Lignoceric acid (C24:0) (m14): 1.78 *
- Nervonic acid (C24:cis[15]1) (m14): 2.55 *
- Noradrenaline (Norepinephrine) (m14): 1.22
- Phosphate, lipid fraction (m14): 1.8 *
- Phosphatidylcholine (C18:0, C18:2) (m14): 1.04
- Phosphatidylcholine (C18:0, C20:3) (m14): 1.16 *
- Phosphatidylcholine (C18:0, C22:6) (m14): 1.5 *
- Phosphatidylcholine (C18:0,C18:1) (m14): 1.48 *
- Phytosphingosine (m14): 1.23 *
- Stearic acid (C18:0) (m14): 2.3 *
- Testosterone (m14): 2.63 *
- Threonine (m14): 2.58 *
- Tricosanoic acid (C23:0) (m14): 1.3 *
- Tryptophan (m14): 1.11 *
- alpha-Tocopherol (m14): 1.32 *
- beta-Sitosterol (m14): 2.16 *
- dihomo-gamma-Linolenic acid (C20:cis[8,11,14]3) (m14): 2.78 *
- erythro-Sphingosine (d18:1) (m14): 1.92 *
- myo-Inositol-2-phosphate, lipid fraction (m14): 2.78 *
- threo-Sphingosine (d18:1) (m14): 2 *
- 3-Hydroxybutyrate (m14): 0.73 *
- 4-Hydroxy-3-methoxyphenylglycol (HMPG) (m14): 0.99^
- 18-Hydroxy-11-deoxycorticosterone (m14): 0.01 *
- 21-Hydroxyprogesterone (11-Deoxycorticosterone) (m14): 0.41 *
- Citrate (m14): 0.73 *
- Coenzyme Q9 (m14): 0.74 *
- Coenzyme Q10 (m14): 0.86^
- Corticosterone (m14): 0.01 *
- Metanephrine (m14): 0.66 *
- Palmitoleic acid (C16:cis[9]1) (m14): 0.74 *
- Phosphatidylcholine (C16:0, C16:0) (m14): 0.87 *
- Progesterone (m14): 0.54 *
- trans-4-Hydroxyproline (m14): 0.44 *
- 3-Methoxytyrosine (m28): 2.05 *
- 3-O-Methylsphingosine (d18:1) (m28): 2.98 *
- 5-O-Methylsphingosine (d18:1) (m28): 2.54 *
- Androstenedione (m28): 0.94^
- Arachidonic acid (C20:cis[5,8,11,14]4) (m28): 2.35 *
- Behenic acid (C22:0) (m28): 1.57 *
- Cholesterol (m28): 1.97 *
- Cysteine (m28): 1.54 *
- Dodecanol (m28): 1.52 *
- Eicosanoic acid (C20:0) (m28): 1.71 *
- Galactose, lipid fraction (m28): 1.68 *
- Glycerol phosphate, lipid fraction (m28): 2.16 *
- Histidine (m28): 1.37 *
- Indole-3-lactic acid (m28): 1.15 *
- Lignoceric acid (C24:0) (m28): 1.9 *
- Nervonic acid (C24:cis[15]1) (m28): 2.83 *
- Noradrenaline (Norepinephrine) (m28): 1.39 *
- Phosphate, lipid fraction (m28): 1.86 *
- Phosphatidylcholine (C18:0, C18:2) (m28): 1.03^
- Phosphatidylcholine (C18:0, C20:3) (m28): 1.18 *
- Phosphatidylcholine (C18:0, C22:6) (m28): 1.67 *
- Phosphatidylcholine (C18:0,C18:1) (m28): 1.55*
- Phytosphingosine (m28): 1.68 *
- Stearic acid (C18:0) (m28): 2.71 *
- Testosterone (m28): 0.56^
- Threonine (m28): 1.73 *
- Tricosanoic acid (C23:0) (m28): 1.39 *
- Tryptophan (m28): 1.14 *
- alpha-Tocopherol (m28): 1.44 *
- beta-Sitosterol (m28): 2.6 *
- dihomo-gamma-Linolenic acid (C20:cis[8,11,14]3) (m28): 4.01 *
- erythro-Sphingosine (d18:1) (m28): 2.2 *
- myo-Inositol-2-phosphate, lipid fraction (m28): 3.26 *
- threo-Sphingosine (d18:1) (m28): 2.13 *
- 3-Hydroxybutyrate (m28): 0.68 *
- 4-Hydroxy-3-methoxyphenylglycol (HMPG) (m28): 0.82 *
- 18-Hydroxy-11-deoxycorticosterone (m28): 0 *
- 21-Hydroxyprogesterone (11-Deoxycorticosterone) (m28): 0.01 *
- Citrate (m28): 0.81
- Coenzyme Q9 (m28): 0.59 *
- Coenzyme Q10 (m28): 0.7 *
- Corticosterone (m28): 0 *
- Metanephrine (m28): 0.58 *
- Palmitoleic acid (C16:cis[9]1) (m28): 1.42 *
- Phosphatidylcholine (C16:0, C16:0) (m28): 0.79 *
- Progesterone (m28): 0.03 *
- trans-4-Hydroxyproline (m28): 0.52 *
- 3-Hydroxybutyrate, ratio versus control (day 7): 0.58 *
- 18-Hydroxy-11-deoxycorticosterone, ratio versus control (day 7): 0.08 *
- Ceramide (d18:1, C24:1), ratio versus control (day 7): 1
- Coenzyme Q10, ratio versus control (day 7): 0.49 *
- Corticosterone, ratio versus control (day 7): 0.04 *
- Metanephrine, ratio versus control (day 7): 0.91
- Tricosanoic acid (C23:0), ratio versus control (day 7): 1.48 *
- alpha-Tocopherol, ratio versus control (day 7): 1.22 *
- trans-4-Hydroxyproline, ratio versus control (day 7): 0.53 *
- 3-Hydroxybutyrate, ratio versus control (day 14): 0.73 *
- 18-Hydroxy-11-deoxycorticosterone, ratio versus control (day 14): 0.08 *
- Ceramide (d18:1, C24:1), ratio versus control (day 14): 1.47 *
- Coenzyme Q10, ratio versus control (day 14): 0.86
- Corticosterone, ratio versus control (day 14): 0.01 *
- Metanephrine, ratio versus control (day 14): 0.66 *
- Tricosanoic acid (C23:0), ratio versus control (day 14): 1.3 *
- alpha-Tocopherol, ratio versus control (day 14): 1.32 *
- trans-4-Hydroxyproline, ratio versus control (day 14): 0.44 *
- 3-Hydroxybutyrate, ratio versus control (day 28): 0.68 *
- 18-Hydroxy-11-deoxycorticosterone, ratio versus control (day 28): 0.02 *
- Ceramide (d18:1, C24:1), ratio versus control (day 28): 2.22 *
- Coenzyme Q10, ratio versus control (day 28): 0.7 *
- Corticosterone, ratio versus control (day 28): 0 *
- Metanephrine, ratio versus control (day 28): 0.58 *
- Tricosanoic acid (C23:0), ratio versus control (day 28): 1.39 *
- alpha-Tocopherol, ratio versus control (day 28): 1.44 *
- trans-4-Hydroxyproline, ratio versus control (day 28): 0.52 *
